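Test compounds were applied to cells in 96-well plates for 48 hours at 5 doses. GI50: concentration for 50% inhibition of growth. TGI marks complete inhibition of growth.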
Experiments:
Experiment in all cases: NCI-60 cell line screen, 48 h
UACC-257 melanoma = tested on: UACC-257 melanoma
SN12C renal = tested on: SN12C renal
CAKI-1 renal = tested on: CAKI-1 renal
HS 578T breast = tested on: HS 578T breast
A498 renal = tested on: A498 renal
MALME-3M melanoma = tested on: MALME-3M melanoma
HOP-92 NSCLC = tested on: HOP-92 NSCLC
DU-145 prostate = tested on: DU-145 prostate
RXF 393 renal = tested on: RXF 393 renal
HCT-116 colon = tested on: HCT-116 colon
SNB-75 CNS = tested on: SNB-75 CNS
T-47D breast = tested on: T-47D breast
NCI-H522 lung = tested on: NCI-H522 lung
U251 CNS = tested on: U251 CNS
HCC-2998 colon = tested on: HCC-2998 colon
OVCAR-3 ovarian = tested on: OVCAR-3 ovarian
OVCAR-4 ovarian = tested on: OVCAR-4 ovarian
HT29 colon = tested on: HT29 colon
A549 NSCLC = tested on: A549 NSCLC
M14 melanoma = tested on: M14 melanoma
IGROV1 ovarian = tested on: IGROV1 ovarian
SF-268 CNS = tested on: SF-268 CNS
SF-295 CNS = tested on: SF-295 CNS
UACC-62 melanoma = tested on: UACC-62 melanoma
TK-10 renal = tested on: TK-10 renal
SK-MEL-5 melanoma = tested on: SK-MEL-5 melanoma
SNB-19 CNS = tested on: SNB-19 CNS
NCI-H460 lung = tested on: NCI-H460 lung
SF-539 CNS = tested on: SF-539 CNS
786-0 renal = tested on: 786-0 renal
OVCAR-8 ovarian = tested on: OVCAR-8 ovarian
MOLT-4 leukemia = tested on: MOLT-4 leukemia
SW-620 colon = tested on: SW-620 colon
ACHN renal = tested on: ACHN renal
HOP-62 NSCLC = tested on: HOP-62 NSCLC
LOX IMVI melanoma = tested on: LOX IMVI melanoma
BT-549 breast = tested on: BT-549 breast
UO-31 renal = tested on: UO-31 renal
MDA-MB-468 breast = tested on: MDA-MB-468 breast
HCT-15 colon = tested on: HCT-15 colon
NCI-H226 lung = tested on: NCI-H226 lung
PC-3 prostate = tested on: PC-3 prostate
OVCAR-5 ovarian = tested on: OVCAR-5 ovarian
MDA-MB-231 breast = tested on: MDA-MB-231 breast
KM12 colon = tested on: KM12 colon
EKVX NSCLC = tested on: EKVX NSCLC
NCI-H23 lung = tested on: NCI-H23 lung
MCF7 breast = tested on: MCF7 breast
HL-60(TB) leukemia = tested on: HL-60(TB) leukemia
COLO 205 colon = tested on: COLO 205 colon
MDA-MB-435 = tested on: MDA-MB-435
SK-OV-3 ovarian = tested on: SK-OV-3 ovarian
K-562 leukemia = tested on: K-562 leukemia
SK-MEL-28 melanoma = tested on: SK-MEL-28 melanoma

Compound `Cc1cc(C(F)(F)F)ccc1C(=O)Nc1sc2c(c1C#N)CCC(=O)C2` has a GI50 (UACC-257 melanoma) of 1900 nM, a TGI (UACC-257 melanoma) of 5280 nM and a GI50 (SN12C renal) of 1640 nM. For the same compound, the TGI (SN12C renal) was 10900 nM, the GI50 (CAKI-1 renal) was 1320 nM and the TGI (CAKI-1 renal) was 2950 nM. The GI50 (HS 578T breast) was 2240 nM, the TGI (HS 578T breast) was 22600 nM and the GI50 (A498 renal) was 23200 nM. It also gave a TGI (A498 renal) of 93500 nM, a GI50 (MALME-3M melanoma) of 1450 nM and a TGI (MALME-3M melanoma) of 3010 nM. For the same compound, the GI50 (HOP-92 NSCLC) was 957 nM, the TGI (HOP-92 NSCLC) was 2620 nM and the GI50 (DU-145 prostate) was 3570 nM. The TGI (DU-145 prostate) was over 100000 nM, the GI50 (RXF 393 renal) was 659 nM and the TGI (RXF 393 renal) was 3090 nM. It also gave a GI50 (HCT-116 colon) of 411 nM, a TGI (HCT-116 colon) of 10300 nM and a GI50 (SNB-75 CNS) of 1030 nM. The TGI (SNB-75 CNS) was 6740 nM, the GI50 (T-47D breast) was 453 nM and the TGI (T-47D breast) was 2520 nM. For the same compound, the GI50 (NCI-H522 lung) was 288 nM, the TGI (NCI-H522 lung) was 1010 nM and the GI50 (U251 CNS) was 2250 nM. The TGI (U251 CNS) was 13200 nM, the GI50 (HCC-2998 colon) was 2730 nM and the TGI (HCC-2998 colon) was 9210 nM. For the same compound, the GI50 (OVCAR-3 ovarian) was 1400 nM, the TGI (OVCAR-3 ovarian) was 3240 nM and the GI50 (OVCAR-4 ovarian) was 1250 nM. For the same compound, the TGI (OVCAR-4 ovarian) was 2940 nM, the GI50 (HT29 colon) was 973 nM and the TGI (HT29 colon) was 3430 nM. The GI50 (A549 NSCLC) was 3420 nM, the TGI (A549 NSCLC) was 23100 nM and the GI50 (M14 melanoma) was 1390 nM. The TGI (M14 melanoma) was 3610 nM, the GI50 (IGROV1 ovarian) was 3420 nM and the TGI (IGROV1 ovarian) was 13500 nM. For the same compound, the GI50 (SF-268 CNS) was 2830 nM, the TGI (SF-268 CNS) was 20500 nM and the GI50 (SF-295 CNS) was 2010 nM. It also gave a TGI (SF-295 CNS) of 5910 nM, a GI50 (UACC-62 melanoma) of 1220 nM and a TGI (UACC-62 melanoma) of 2670 nM. For the same compound, the GI50 (TK-10 renal) was 1590 nM, the TGI (TK-10 renal) was 24900 nM and the GI50 (SK-MEL-5 melanoma) was 1540 nM. It also gave a TGI (SK-MEL-5 melanoma) of 2960 nM, a GI50 (SNB-19 CNS) of 3910 nM and a TGI (SNB-19 CNS) of over 100000 nM. For the same compound, the GI50 (NCI-H460 lung) was 3160 nM, the TGI (NCI-H460 lung) was 69600 nM and the GI50 (SF-539 CNS) was 496 nM. For the same compound, the TGI (SF-539 CNS) was 1900 nM, the GI50 (786-0 renal) was 3510 nM and the TGI (786-0 renal) was over 100000 nM. For the same compound, the GI50 (OVCAR-8 ovarian) was 1800 nM, the TGI (OVCAR-8 ovarian) was 27300 nM and the GI50 (MOLT-4 leukemia) was 619 nM. It also gave a TGI (MOLT-4 leukemia) of 12300 nM, a GI50 (SW-620 colon) of 504 nM and a TGI (SW-620 colon) of 2570 nM. The GI50 (ACHN renal) was 1090 nM, the TGI (ACHN renal) was 2570 nM and the GI50 (HOP-62 NSCLC) was 3100 nM. It also gave a TGI (HOP-62 NSCLC) of over 100000 nM, a GI50 (LOX IMVI melanoma) of 1060 nM and a TGI (LOX IMVI melanoma) of 3730 nM. It also gave a GI50 (BT-549 breast) of 591 nM, a TGI (BT-549 breast) of 3040 nM and a GI50 (UO-31 renal) of 1120 nM. The TGI (UO-31 renal) was 2380 nM, the GI50 (MDA-MB-468 breast) was 1540 nM and the TGI (MDA-MB-468 breast) was 5040 nM. It also gave a GI50 (HCT-15 colon) of 552 nM, a TGI (HCT-15 colon) of 2360 nM and a GI50 (NCI-H226 lung) of 2830 nM. The TGI (NCI-H226 lung) was 18500 nM, the GI50 (PC-3 prostate) was 333 nM and the TGI (PC-3 prostate) was 3280 nM. It also gave a GI50 (OVCAR-5 ovarian) of 2020 nM, a TGI (OVCAR-5 ovarian) of 5940 nM and a GI50 (MDA-MB-231 breast) of 1560 nM. For the same compound, the TGI (MDA-MB-231 breast) was 3390 nM, the GI50 (KM12 colon) was 1080 nM and the TGI (KM12 colon) was 5000 nM. The GI50 (EKVX NSCLC) was 2630 nM, the TGI (EKVX NSCLC) was 12000 nM and the GI50 (NCI-H23 lung) was 1710 nM. It also gave a TGI (NCI-H23 lung) of 6500 nM, a GI50 (MCF7 breast) of 1780 nM and a TGI (MCF7 breast) of 11300 nM. It also gave a GI50 (HL-60(TB) leukemia) of 448 nM, a TGI (HL-60(TB) leukemia) of 13700 nM and a GI50 (COLO 205 colon) of 2030 nM. The TGI (COLO 205 colon) was 3680 nM, the GI50 (MDA-MB-435) was 1880 nM and the TGI (MDA-MB-435) was 4340 nM. For the same compound, the GI50 (SK-OV-3 ovarian) was 9210 nM, the TGI (SK-OV-3 ovarian) was 28500 nM and the GI50 (K-562 leukemia) was 240 nM. For the same compound, the TGI (K-562 leukemia) was over 100000 nM, the GI50 (SK-MEL-28 melanoma) was 1240 nM and the TGI (SK-MEL-28 melanoma) was 2620 nM.

From PubChem BioAssay (NCI)
